In patent US20260356819A1, “OXOISOINDOLINYL-SUBSTITUTED […] DERIVATIVE AND USE THEREOF” (GLUETACS THERAPEUTICS (SHANGHAI) CO., LTD., priority 2023, published 2026):

How the values were obtained:
Assay type in all cases: cell-based
Conditions in all cases: compounds at 50 nM and 500 nM
[1] = molecular target: T1, WEE1 (Homo sapiens, UniProt P30291+Q96SW2); test: Western blot degradation of WEE1 in hPBMCs (24 h)
T1 construct: The supernatant was aspirated as the extracted total cell protein; endogenous in cells; host or cells: human peripheral blood mononuclear cells (hPBMCs)
Summary of the method: (§1)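 hPBMCs (1×10^6 cells/mL) exposed to compound at 50 nM and 500 nM for 24 h, DMSO as reference. Lysates run on SDS-PAGE and immunoblotted. Band grayscale normalized to internal control gives % protein remaining; DC50 from fitted concentration-response of band intensity versus DMSO.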

[2] = molecular target: T2, IKZF1 (Homo sapiens, UniProt Q13422+Q96SW2); test: Western blot degradation of IKZF1 in hPBMCs (24 h)
T2 construct: The supernatant was aspirated as the extracted total cell protein; endogenous in cells; host or cells: human peripheral blood mononuclear cells (hPBMCs)
Summary of the method: as §1

[3] = molecular target: T3, IKZF2 (Homo sapiens, UniProt Q96SW2+Q9UKS7); test: Western blot degradation of IKZF2 in hPBMCs (24 h)
T3 construct: The supernatant was aspirated as the extracted total cell protein; endogenous in cells; host or cells: human peripheral blood mononuclear cells (hPBMCs)
Summary of the method: as §1

[4] = molecular target: T4, IKZF3 (Homo sapiens, UniProt Q96SW2+Q9UKT9); test: Western blot degradation of IKZF3 in hPBMCs (24 h)
T4 construct: The supernatant was aspirated as the extracted total cell protein; endogenous in cells; host or cells: human peripheral blood mononuclear cells (hPBMCs)
Summary of the method: as §1

[5] = molecular target: T5, CK1α (Homo sapiens, UniProt P48729+Q96SW2); test: Western blot degradation of CK1α in hPBMCs (24 h)
T5 construct: The supernatant was aspirated as the extracted total cell protein; endogenous in cells; host or cells: human peripheral blood mononuclear cells (hPBMCs)
Summary of the method: as §1

[6] = molecular target: T6, GSPT1 (Homo sapiens, UniProt P15170+Q96SW2); test: Western blot degradation of GSPT1 in hPBMCs (24 h)
T6 construct: The supernatant was aspirated as the extracted total cell protein; endogenous in cells; host or cells: human peripheral blood mononuclear cells (hPBMCs)
Summary of the method: as §1

T3 sequence (Q9UKS7 whole entry): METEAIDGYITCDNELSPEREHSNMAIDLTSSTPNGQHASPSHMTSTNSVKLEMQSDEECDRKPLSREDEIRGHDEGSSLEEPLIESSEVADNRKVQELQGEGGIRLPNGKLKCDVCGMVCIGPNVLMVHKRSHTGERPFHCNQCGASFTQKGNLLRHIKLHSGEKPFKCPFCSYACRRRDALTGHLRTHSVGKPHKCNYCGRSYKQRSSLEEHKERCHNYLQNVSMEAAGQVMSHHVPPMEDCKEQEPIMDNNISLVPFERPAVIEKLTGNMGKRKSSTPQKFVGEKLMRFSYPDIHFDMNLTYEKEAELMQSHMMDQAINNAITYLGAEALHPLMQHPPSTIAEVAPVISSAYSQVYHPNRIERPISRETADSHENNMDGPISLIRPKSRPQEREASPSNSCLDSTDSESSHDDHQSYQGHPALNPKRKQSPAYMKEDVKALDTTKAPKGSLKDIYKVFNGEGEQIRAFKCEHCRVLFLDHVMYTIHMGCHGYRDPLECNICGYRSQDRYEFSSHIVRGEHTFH
T3 sequence (Q96SW2 whole entry): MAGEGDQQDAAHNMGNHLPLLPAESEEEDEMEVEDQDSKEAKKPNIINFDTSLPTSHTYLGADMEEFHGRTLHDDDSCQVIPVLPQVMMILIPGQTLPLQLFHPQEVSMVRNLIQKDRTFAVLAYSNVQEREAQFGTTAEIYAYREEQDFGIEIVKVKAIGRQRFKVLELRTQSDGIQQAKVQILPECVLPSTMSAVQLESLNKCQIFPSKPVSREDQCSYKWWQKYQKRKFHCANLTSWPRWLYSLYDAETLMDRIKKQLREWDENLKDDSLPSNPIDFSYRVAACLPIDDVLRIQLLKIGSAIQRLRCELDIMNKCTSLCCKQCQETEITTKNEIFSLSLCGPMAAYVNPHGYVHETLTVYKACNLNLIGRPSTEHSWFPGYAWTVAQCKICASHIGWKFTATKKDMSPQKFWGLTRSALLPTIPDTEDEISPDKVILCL
T3 sequence (Q16531 whole entry partner): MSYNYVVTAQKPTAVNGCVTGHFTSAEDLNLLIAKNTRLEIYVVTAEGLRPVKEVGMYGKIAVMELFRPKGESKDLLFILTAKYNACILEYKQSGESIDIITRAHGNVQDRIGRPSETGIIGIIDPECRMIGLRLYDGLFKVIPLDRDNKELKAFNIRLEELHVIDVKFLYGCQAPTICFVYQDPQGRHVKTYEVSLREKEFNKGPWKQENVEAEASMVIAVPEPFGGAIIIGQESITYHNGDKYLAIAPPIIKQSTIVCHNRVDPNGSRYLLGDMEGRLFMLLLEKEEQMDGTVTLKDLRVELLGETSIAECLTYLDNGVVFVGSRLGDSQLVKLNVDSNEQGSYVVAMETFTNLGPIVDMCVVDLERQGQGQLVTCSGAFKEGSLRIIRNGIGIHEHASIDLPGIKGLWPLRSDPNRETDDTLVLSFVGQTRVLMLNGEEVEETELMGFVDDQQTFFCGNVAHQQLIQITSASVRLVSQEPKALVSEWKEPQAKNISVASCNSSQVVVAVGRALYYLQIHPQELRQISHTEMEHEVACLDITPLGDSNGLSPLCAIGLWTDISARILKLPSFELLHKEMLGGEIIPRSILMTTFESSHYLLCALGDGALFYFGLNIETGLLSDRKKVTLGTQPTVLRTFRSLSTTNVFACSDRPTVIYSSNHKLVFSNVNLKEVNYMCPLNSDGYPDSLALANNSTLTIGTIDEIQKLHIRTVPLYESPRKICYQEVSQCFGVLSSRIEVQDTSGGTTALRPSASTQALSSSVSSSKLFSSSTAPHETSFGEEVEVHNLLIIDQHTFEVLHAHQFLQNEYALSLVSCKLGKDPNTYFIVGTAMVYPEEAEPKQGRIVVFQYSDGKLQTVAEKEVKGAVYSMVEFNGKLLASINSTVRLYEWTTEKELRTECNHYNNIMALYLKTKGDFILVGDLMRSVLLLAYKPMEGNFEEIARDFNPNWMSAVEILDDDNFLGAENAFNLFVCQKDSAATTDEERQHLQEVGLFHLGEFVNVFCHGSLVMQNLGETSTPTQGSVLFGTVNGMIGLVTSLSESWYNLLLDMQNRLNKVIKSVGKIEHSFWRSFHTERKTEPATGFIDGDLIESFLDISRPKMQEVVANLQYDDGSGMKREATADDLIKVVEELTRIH
T5 sequence (P48729 whole entry): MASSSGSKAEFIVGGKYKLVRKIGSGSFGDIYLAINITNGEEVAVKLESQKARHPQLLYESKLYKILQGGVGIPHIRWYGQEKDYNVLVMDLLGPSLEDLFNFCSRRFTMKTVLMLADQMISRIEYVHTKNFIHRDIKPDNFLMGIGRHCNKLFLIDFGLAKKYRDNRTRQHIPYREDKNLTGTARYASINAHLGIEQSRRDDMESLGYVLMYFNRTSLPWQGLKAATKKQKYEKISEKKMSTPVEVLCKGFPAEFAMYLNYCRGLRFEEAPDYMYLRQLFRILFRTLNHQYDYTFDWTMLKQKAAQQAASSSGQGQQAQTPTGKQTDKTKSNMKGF
T5 sequence (Q96SW2 whole entry): as the sequence (Q96SW2 whole entry) above
T5 sequence (Q16531 whole entry partner): as the sequence (Q16531 whole entry partner) above
T2 sequence (Q13422 whole entry): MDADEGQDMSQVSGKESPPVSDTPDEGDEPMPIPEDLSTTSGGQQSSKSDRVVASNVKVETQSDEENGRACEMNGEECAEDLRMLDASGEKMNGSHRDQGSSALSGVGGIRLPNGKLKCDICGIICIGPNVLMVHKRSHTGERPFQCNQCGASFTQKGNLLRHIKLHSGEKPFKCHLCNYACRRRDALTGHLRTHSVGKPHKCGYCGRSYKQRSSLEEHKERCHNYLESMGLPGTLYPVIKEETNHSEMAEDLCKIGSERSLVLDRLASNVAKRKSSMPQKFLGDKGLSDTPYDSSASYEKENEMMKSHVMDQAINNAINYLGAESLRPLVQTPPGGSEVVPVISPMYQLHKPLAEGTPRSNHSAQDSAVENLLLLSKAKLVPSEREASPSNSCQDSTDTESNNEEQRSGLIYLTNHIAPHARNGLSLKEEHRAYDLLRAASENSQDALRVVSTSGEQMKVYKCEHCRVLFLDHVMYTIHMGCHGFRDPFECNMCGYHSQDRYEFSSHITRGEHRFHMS
T2 sequence (Q96SW2 whole entry): as the sequence (Q96SW2 whole entry) above
T2 sequence (Q16531 whole entry partner): as the sequence (Q16531 whole entry partner) above
T1 sequence (P30291 whole entry): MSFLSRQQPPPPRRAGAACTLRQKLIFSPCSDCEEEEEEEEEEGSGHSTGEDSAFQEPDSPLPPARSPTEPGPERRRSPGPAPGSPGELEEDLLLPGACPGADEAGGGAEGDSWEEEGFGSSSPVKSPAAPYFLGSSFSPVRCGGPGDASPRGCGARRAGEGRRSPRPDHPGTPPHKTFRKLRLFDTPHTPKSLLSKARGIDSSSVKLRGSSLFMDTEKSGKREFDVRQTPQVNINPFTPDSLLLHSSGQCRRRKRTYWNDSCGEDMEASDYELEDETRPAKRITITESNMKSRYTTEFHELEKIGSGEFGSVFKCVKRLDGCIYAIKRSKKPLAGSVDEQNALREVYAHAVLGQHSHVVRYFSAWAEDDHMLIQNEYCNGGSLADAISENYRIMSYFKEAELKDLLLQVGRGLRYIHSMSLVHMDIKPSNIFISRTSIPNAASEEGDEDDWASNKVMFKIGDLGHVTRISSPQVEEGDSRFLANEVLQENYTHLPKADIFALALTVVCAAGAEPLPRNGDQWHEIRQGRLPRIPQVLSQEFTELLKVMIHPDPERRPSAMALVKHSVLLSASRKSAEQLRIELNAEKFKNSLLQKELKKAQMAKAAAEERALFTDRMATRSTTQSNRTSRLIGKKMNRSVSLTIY
T1 sequence (Q96SW2 whole entry): as the sequence (Q96SW2 whole entry) above
T1 sequence (Q16531 whole entry partner): as the sequence (Q16531 whole entry partner) above
T6 sequence (P15170 whole entry): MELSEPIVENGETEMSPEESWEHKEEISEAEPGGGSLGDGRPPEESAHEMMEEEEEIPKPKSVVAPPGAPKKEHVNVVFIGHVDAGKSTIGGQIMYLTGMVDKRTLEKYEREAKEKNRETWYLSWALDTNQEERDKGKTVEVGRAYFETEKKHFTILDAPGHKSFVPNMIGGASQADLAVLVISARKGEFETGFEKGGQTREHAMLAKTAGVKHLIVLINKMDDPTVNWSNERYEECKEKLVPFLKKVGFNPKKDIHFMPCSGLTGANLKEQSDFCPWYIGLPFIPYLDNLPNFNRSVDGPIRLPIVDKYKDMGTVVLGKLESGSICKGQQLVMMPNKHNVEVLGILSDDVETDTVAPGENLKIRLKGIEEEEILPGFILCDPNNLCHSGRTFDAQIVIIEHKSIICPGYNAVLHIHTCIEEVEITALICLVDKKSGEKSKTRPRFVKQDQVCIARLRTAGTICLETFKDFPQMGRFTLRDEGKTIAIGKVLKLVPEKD
T6 sequence (Q96SW2 whole entry): as the sequence (Q96SW2 whole entry) above
T6 sequence (Q16531 whole entry partner): as the sequence (Q16531 whole entry partner) above

Structure (SMILES) | WEE1 substrate protein remaining % [1] | IKZF1 substrate protein remaining % [2] | IKZF2 substrate protein remaining % [3] | IKZF3 substrate protein remaining % [4] | CK1α substrate protein remaining % [5] | GSPT1 substrate protein remaining % [6]
O=C1CCN(N2Cc3cc(CN4CCN(c5ncc6ccsc6n5)CC4)ccc3C2=O)C(=O)N1 [GT-08081, 1-(1-oxo-5-((4-(thieno[2,3-d]pyrimidin-2-yl)piperazin-1-yl)methyl)isoindolin-2-yl)dihydropyrimidine-2,4(1H,3H)-dione] | A (0% ≤ substrate protein remaining % ≤80%) | B (80%< substrate protein remaining % ≤100%) | B (80%< substrate protein remaining % ≤100%) | B (80%< substrate protein remaining % ≤100%) | A (0% ≤ substrate protein remaining % ≤80%) | A (0% ≤ substrate protein remaining % ≤80%)
O=C1CCN(N2Cc3cc(CN4CCC(c5ncnc6sccc56)CC4)ccc3C2=O)C(=O)N1 [GT-08082, 1-(1-oxo-5-((4-(thieno[2,3-d]pyrimidin-4-yl)piperidin-1-yl)methyl)isoindolin-2-yl)dihydropyrimidine-2,4(1H,3H)-dione] | A (0% ≤ substrate protein remaining % ≤80%) | B (80%< substrate protein remaining % ≤100%) | B (80%< substrate protein remaining % ≤100%) | B (80%< substrate protein remaining % ≤100%) | A (0% ≤ substrate protein remaining % ≤80%) | A (0% ≤ substrate protein remaining % ≤80%)
Cc1cc2c(C3CCN(Cc4ccc5c(c4)CN(N4CCC(=O)NC4=O)C5=O)CC3)ncnc2s1 [GT-08083, 1-(5-((4-(6-methylthieno[2,3-d]pyrimidin-4-yl)piperidin-1-yl)methyl)-1-oxoisoindolin-2-yl)dihydropyrimidine-2,4(1H,3H)-dione] | B (80%< substrate protein remaining % ≤100%) | B (80%< substrate protein remaining % ≤100%) | B (80%< substrate protein remaining % ≤100%) | B (80%< substrate protein remaining % ≤100%) | A (0% ≤ substrate protein remaining % ≤80%) | A (0% ≤ substrate protein remaining % ≤80%)
Cc1sc2ncnc(C3CCN(Cc4ccc5c(c4)CN(N4CCC(=O)NC4=O)C5=O)CC3)c2c1C [GT-08084, 1-(5-((4-(5,6-dimethylthieno[2,3-d]pyrimidin-4-yl)piperidin-1-yl)methyl)-1-oxoisoindolin-2-yl)dihydropyrimidine-2,4(1H,3H)-dione] | B (80%< substrate protein remaining % ≤100%) | B (80%< substrate protein remaining % ≤100%) | B (80%< substrate protein remaining % ≤100%) | B (80%< substrate protein remaining % ≤100%) | A (0% ≤ substrate protein remaining % ≤80%) | A (0% ≤ substrate protein remaining % ≤80%)
O=C1CCN(N2Cc3cc(CN4CCC(c5ncnc6sc(-c7ccccc7)cc56)CC4)ccc3C2=O)C(=O)N1 [GT-08085, 1-(1-oxo-5-((4-(6-phenylthieno[2,3-d]pyrimidin-4-yl)piperidin-1-yl)methyl)isoindolin-2-yl)dihydropyrimidine-2,4(1H,3H)-dione] | B (80%< substrate protein remaining % ≤100%) | B (80%< substrate protein remaining % ≤100%) | B (80%< substrate protein remaining % ≤100%) | B (80%< substrate protein remaining % ≤100%) | A (0% ≤ substrate protein remaining % ≤80%) | A (0% ≤ substrate protein remaining % ≤80%)
Cc1nc(C2CCN(Cc3ccc4c(c3)CN(N3CCC(=O)NC3=O)C4=O)CC2)c2ccsc2n1 [GT-08088, 1-(5-((4-(2-methylthieno[2,3-d]pyrimidin-4-yl)piperidin-1-yl)methyl)-1-oxoisoindolin-2-yl)dihydropyrimidine-2,4(1H,3H)-dione] | A (0% ≤ substrate protein remaining % ≤80%) | B (80%< substrate protein remaining % ≤100%) | B (80%< substrate protein remaining % ≤100%) | B (80%< substrate protein remaining % ≤100%) | A (0% ≤ substrate protein remaining % ≤80%) | A (0% ≤ substrate protein remaining % ≤80%)
Cc1nc(C2CCN(Cc3ccc4c(c3)CN(N3CCC(=O)NC3=O)C4=O)CC2)c2c3c(sc2n1)CCCC3 [GT-08089, 1-(5-((4-(2-methyl-5,6,7,8-tetrahydrobenzo[4,5]thieno[2,3-d]pyrimidin-4-yl)piperidin-1-yl)methyl)-1-oxoisoindolin-2-yl)dihydropyrimidine-2,4(1H,3H)-dione] | A (0% ≤ substrate protein remaining % ≤80%) | B (80%< substrate protein remaining % ≤100%) | B (80%< substrate protein remaining % ≤100%) | B (80%< substrate protein remaining % ≤100%) | A (0% ≤ substrate protein remaining % ≤80%) | A (0% ≤ substrate protein remaining % ≤80%)
O=C1CCN(N2C(=O)c3ccc(CN4CCN(c5ncnc6sccc56)CC4)cc3C2=O)C(=O)N1 [GT-08090, 2-(2,4-dioxotetrahydropyrimidin-1(2H)-yl)-5-((4-(thieno[2,3-d]pyrimidin-4-yl)piperazin-1-yl)methyl)isoindoline-1,3-dione] | A (0% ≤ substrate protein remaining % ≤80%) | B (80%< substrate protein remaining % ≤100%) | B (80%< substrate protein remaining % ≤100%) | B (80%< substrate protein remaining % ≤100%) | A (0% ≤ substrate protein remaining % ≤80%) | A (0% ≤ substrate protein remaining % ≤80%)
Cc1csc2ncnc(N3CCN(Cc4ccc5c(c4)C(=O)N(N4CCC(=O)NC4=O)C5=O)CC3)c12 [GT-08091, 2-(2,4-dioxotetrahydropyrimidin-1(2H)-yl)-5-((4-(5-methylthieno[2,3-d]pyrimidin-4-yl)piperazin-1-yl)methyl)isoindoline-1,3-dione] | A (0% ≤ substrate protein remaining % ≤80%) | B (80%< substrate protein remaining % ≤100%) | B (80%< substrate protein remaining % ≤100%) | B (80%< substrate protein remaining % ≤100%) | A (0% ≤ substrate protein remaining % ≤80%) | A (0% ≤ substrate protein remaining % ≤80%)
Cc1cc2c(N3CCN(Cc4ccc5c(c4)C(=O)N(N4CCC(=O)NC4=O)C5=O)CC3)ncnc2s1 [GT-08092, 2-(2,4-dioxotetrahydropyrimidin-1(2H)-yl)-5-((4-(6-methylthieno[2,3-d]pyrimidin-4-yl)piperazin-1-yl)methyl)isoindoline-1,3-dione] | A (0% ≤ substrate protein remaining % ≤80%) | B (80%< substrate protein remaining % ≤100%) | B (80%< substrate protein remaining % ≤100%) | B (80%< substrate protein remaining % ≤100%) | A (0% ≤ substrate protein remaining % ≤80%) | A (0% ≤ substrate protein remaining % ≤80%)
CC(C)c1cc2c(N3CCN(Cc4ccc5c(c4)C(=O)N(N4CCC(=O)NC4=O)C5=O)CC3)ncnc2s1 [GT-08093, 2-(2,4-dioxotetrahydropyrimidin-1(2H)-yl)-5-((4-(6-isopropylthieno[2,3-d]pyrimidin-4-yl)piperazin-1-yl)methyl)isoindoline-1,3-dione] | A (0% ≤ substrate protein remaining % ≤80%) | B (80%< substrate protein remaining % ≤100%) | B (80%< substrate protein remaining % ≤100%) | B (80%< substrate protein remaining % ≤100%) | A (0% ≤ substrate protein remaining % ≤80%) | A (0% ≤ substrate protein remaining % ≤80%)
Cc1sc2ncnc(N3CCN(Cc4ccc5c(c4)C(=O)N(N4CCC(=O)NC4=O)C5=O)CC3)c2c1C [GT-08094, 5-((4-(5,6-dimethylthieno[2,3-d]pyrimidin-4-yl)piperazin-1-yl)methyl)-2-(2,4-dioxotetrahydropyrimidin-1(2H)-yl)isoindoline-1,3-dione] | A (0% ≤ substrate protein remaining % ≤80%) | B (80%< substrate protein remaining % ≤100%) | B (80%< substrate protein remaining % ≤100%) | B (80%< substrate protein remaining % ≤100%) | A (0% ≤ substrate protein remaining % ≤80%) | A (0% ≤ substrate protein remaining % ≤80%)
